Experimental data reported in publication PMC12040169 (PLOS Biology, 2025).

Assay: in vitro
Conditions: human, hela cells, % viability

Compound | viability at 28.5 h, 10 µM
Cc1ccc(OCc2cc(-c3ccco3)on2)c([N+](=O)[O-])n1 [CBK233261] | 98.8%
COc1ccccc1C(=O)N1CCN(C(=O)CN2CCCC2)CC1 [CBK024836] | 88.1%
O=S(=O)(c1ccc(-c2ccccc2)cc1)N1CCCN(Cc2cccc(F)c2F)CC1 [CBK063111] | 113%
Cc1ccc(NC2=NC(C(=O)Nc3ccc(C)c(C)c3)CC(=O)N2)cc1 (stereo not shown) [CBK266718] | 96.9%
COCc1cccc(Nc2ncnc3c2cnn3CCC#N)c1 [CBK305983] | 83.2%
CC1(C)NC(=O)N(CC(O)CN(c2cc(Cl)ccc2Cl)S(=O)(=O)c2ccccc2)C1=O (stereo not shown) [CBK033672] | 91.4%
CS(=O)(=O)Nc1cc2ccccc2c(-c2ccc3c(c2)CCO3)n1 [CBK073773] | 90.5%
CN(Cc1c(F)cccc1Cl)C(=O)CSc1nc(CC(=O)O)cs1 [CBK296708] | 95.3%
N#CCCCN1CCC(Oc2nccnc2OCc2ccc(Br)cc2F)CC1 [CBK153647] | 94.7%
Cn1c(S)nnc1-c1ccccc1F [CBK028811] | 95%
O=C(COc1ccc2ccccc2c1)N1CCN(S(=O)(=O)c2ccc([N+](=O)[O-])cc2)CC1 [CBK264277] | 98%
C#CCOc1cncc(Cl)n1 [CBK113370] | 87.7%
O=C(NC1CC2CCC(C1)N2Cc1ccccc1)c1ccc(Cl)cc1 (stereo not shown) [CBK120192] | 88.4%
Cc1cccc(C(C)(C)C)c1NC(=O)NCCc1cccs1 [CBK044530] | 98.9%
O=C1NC/C=C/CC2(CCN(Cc3c[nH]c4ccccc34)CC2)C(=O)NCCOc2ccccc21 [CBK292085] | 100%
c1cnn(CC2CCCCN2c2ncnc3ccsc23)c1 (stereo not shown) [CBK304843] | 88.3%
CSc1nnc(CC2CCN(C(=O)c3cc(C)on3)CC2)n1C [CBK307481] | 108%
OCC1OC(n2cnc3c(Oc4ccccc4)ncnc32)CC1O (stereo not shown) [CBK201181] | 91.5%
CCc1[nH]nc2c1C(C1C=CCCC1)C(C#N)=C(N)O2 (stereo not shown) [CBK270236] | 92.9%
Nc1ncc(-c2ccncc2)nc1NCc1cccnc1 [CBK063879] | 103%
CC(C)CN1CC(C(=O)N(C)CC2OCCc3ccccc32)CC1=O (stereo not shown) [CBK282093] | 102%
CC(C)(CNC(=O)Cn1cnc2ccccc21)N1CCCCC1 [CBK281879] | 95.8%

Compound | viability at 28.5 h, 10 µM
CCC(CN1CCOCC1)NC(=O)Cc1coc2cc(C)cc(C)c12 (stereo not shown) [CBK282812] | 103%
Clc1ccccc1CN(CCCn1ccnc1)Cc1c[nH]cn1 [CBK282988] | 100%
CCn1ncnc1CN1CCN(Cc2ccccc2CO)CC1 [CBK306717] | 88.1%
O=c1ccc2c(-c3cccc(OCc4ccccc4)c3)ccnc2[nH]1 [CBK073739] | 87.6%
O=C(c1ccc(F)cc1)[C@H]1CCCN(C(=O)c2cc(C3CC3)n[nH]2)C1 [CBK282410] | 99.6%
COc1ccc(CCN2CCC(Oc3nccnc3OCCN3C(=O)CCC3=O)CC2)cc1OC [CBK084359] | 109%
CC(Cn1cccn1)C(=O)Nc1cccc(N2CCCC2)c1 (stereo not shown) [CBK283249] | 87.1%
CC(C)Oc1ccc(C(=O)C2=C(O)C(=O)N(Cc3cccnc3)C2c2cccc([N+](=O)[O-])c2)cc1 (stereo not shown) [CBK264936] | 89.2%
Cc1cc(-c2nn3c(-c4ccccc4)nnc3s2)c2ccccc2n1 [CBK267187] | 101%
Cc1noc(C)c1C(=O)N(C)Cc1cc(-c2ccncc2)no1 [CBK306677] | 102%
O=C(CCc1nc2ccccc2nc1O)OCc1cccc([N+](=O)[O-])c1 [CBK266804] | 85%
Cc1cc2cc(F)ccc2n1CCCN1CCN(c2ccncc2)CC1 [CBK039119G] | 116%
COc1nc2ccccc2nc1CCC(=O)O [CBK269356] | 89.1%
O=C1CNC(=O)N1CC(O)Cn1c2ccc(Cl)cc2c2cc(Cl)ccc21 (stereo not shown) [CBK265792] | 90.1%
CCC(NC(=O)CCN1Cc2ccccc2C1=O)c1ccc(F)cc1 (stereo not shown) [CBK282657] | 104%
Cc1ccc2nc(-c3ccc(/N=C/c4ccc(/C=N/c5ccc(-c6nc7ccc(C)cc7s6)cc5)cc4)cc3)sc2c1 [CBK261661] | 87.1%
Cc1nn(C)c2ncc(S(=O)(=O)Nc3ccc(F)cn3)cc12 [CBK305175] | 95.1%
Cc1cc2[nH]cc(C(=O)N3CCCC3c3ccco3)c(=O)n2n1 (stereo not shown) [CBK307390] | 82.9%
CCCc1cc(CNC(=O)c2cc(C3CC3)nn2C)on1 [CBK282048] | 102%
O=C1CN(Cc2ccc3ccccc3n2)CCN1C1CCCC1 [CBK281961] | 88.6%
C1=CCC(CN(CCCn2ccnc2)CC2CCOC2)CC1 (stereo not shown) [CBK283217] | 88.8%
COCCN1CC2=C(C1=O)C(c1ccc(F)cc1)NC(=O)N2 (stereo not shown) [CBK249447] | 81.9%

Compound | viability at 28.5 h, 10 µM
CCn1c(SCC(=O)c2ccc(F)cc2)nnc1C(C)Oc1ccccc1 (stereo not shown) [CBK269695] | 108%
O=C(NCCC(=O)N1CCCCC1)c1cccc(OCc2cscn2)c1 [CBK306384] | 98.5%
Cc1oc2c(c1C(=O)N(C)CCN1CCCCC1)CCCC2 [CBK281907] | 90.8%
Cc1cc(C)c(OCC(=O)Nc2cccc(-c3nc4cc(C(C)C)ccc4o3)c2)c([N+](=O)[O-])c1 [CBK264680] | 88.6%
Cc1cc(C)c2c(OCC(=O)NC(C)C)nn(C)c2n1 [CBK306393] | 87.4%
CC(C)(C)c1ccc(-c2nc3ncccc3cc2N)cc1 [CBK067611] | 94.4%
CC(=O)Nc1cc(C(=O)Nc2ccc(Br)cc2)ccc1C [CBK267788] | 84.1%
O=C(CCNc1n[nH]c(=O)[nH]c1=O)N/N=C\c1ccccc1F [CBK263093] | 86.3%
Cn1c(=O)n(CC(N)=O)c(=O)c2c1nc1oc(C(C)(C)C)cn12 [CBK306081] | 96.5%
Cc1ccc(-c2ccc(CCC(=O)O)n2NC(=O)c2ccc([N+](=O)[O-])cc2)cc1 [CBK264776] | 109%
CC(=O)NC1CCN(c2nc(N(C)C)nc3c2CCN(C(C)=O)C3)CC1 [CBK307079] | 85.6%
COc1cc(NC(=O)CSc2ncnc3sc4c(c23)CCCC4)cc(OC)c1 [CBK267547] | 89.6%
O=c1c(N2CCN(CCOc3ccccc3)CC2)nccn1CCOc1cc(F)c(F)cc1F [CBK045934C] | 103%
Cc1ccc(OCC(=O)NCC(c2cccs2)N2CCOCC2)cc1C (stereo not shown) [CBK306143] | 93.3%
CC(=O)Nc1ccc(S(=O)(=O)Nc2nc3ccccc3nc2Nc2ccc(C(=O)O)cc2)cc1 [CBK296079] | 125%
O=C(CCCc1nc(-c2ccccc2Cl)no1)NCc1cccnc1 [CBK269516] | 77.8%
CCOc1cccc(CNc2ccc(O)cc2)c1OCc1ccc(Cl)cc1Cl [CBK074528] | 106%
O=c1[nH]c2c(-c3ccccc3)nnn2c2ccccc12 [CBK288047] | 98.3%
CCCc1n[nH]c(O)c1Cc1ccc(OCCCN(C)C)cc1 [CBK116249A] | 93.1%
CS(=O)(=O)Nc1nccnc1OC1CCN(CCCC#N)CC1 [CBK084276] | 99.4%
